Tested on: KMO
Test: KMO activity assay: L-Kynurenine hydroxylation to 3-Hydroxy-Kynurenine, quantified by LC/MS
Assay type: biochemical
Details: compound at 10 uM; footnote: some portion of activity of amides may be due to contribution of acid precursor
Method: A generalized procedure for monitoring L-Kynurenine (KYN) hydroxylation to form product 3-Hydroxy-Kynurenine (3OH-KYN) by LC/MS is described below. Product is quantified by multiple reaction monitoring using MS.
A method of monitoring L-Kynurenine (KYN) hydroxylation to form product 3-Hydroxy-Kynurenine (3OH-KYN) by LC/MS is described below. Product is quantified by multiple reaction monitoring.
• Compound: Stock concentrations: 10 mM in 100% DMSO • Enzyme: KMO enzyme prepared at Evotec via mitochondria isolation from CHO-GST HIS KMO cells • Substrate: L-Kynurenine (Sigma: Cat #K3750) • [stock concentration: 10 mM in 100 mM potassium phosphate buffer, pH 7.4]
A method of monitoring L-Kynurenine (KYN) hydroxylation to form 3-Hydroxy-Kynurenine (3OH-KYN) by LC/MS is described. Product is quantified by multiple reaction monitoring (MRM method).

| Compound | % Inhibition at 10 uM [%] |
| --- | --- |
| CC1(C)CC(C(N)=O)C(C)(C)N1C(=O)c1cc(-c2ccc(Cl)c(Cl)c2)ncn1 (centres unmarked) [1-[6-(3,4-Dichloro-phenyl)-pyrimidine-4-carbonyl]-2,2,5,5-tetramemyl-pyrrolidine-3-carboxylic acid amide] | 98.27 |
| NC(=O)C1CCN(C(=O)c2cc(-c3ccc(Cl)c(Cl)c3)ncn2)C1 (centres unmarked) [1-[6-(3,4-Dichloro-phenyl)-pyrimidine-4-carbonyl]-pyrrolidine-3-carboxylic acid amide] | 101.835 |
| O=C(NC1CC1)C1CCN(C(=O)c2cc(-c3ccc(Cl)c(Cl)c3)ncn2)C1 (centres unmarked) [1-[6-(3,4-Dichloro-phenyl)-pyrimidine-4-carbonyl]-pyrrolidine-3-carboxylic acid cyclopropylamide] | 91.815 |
| CNC(=O)C1CCN(C(=O)c2cc(-c3ccc(Cl)c(Cl)c3)ncn2)C1 (centres unmarked) [1-[6-(3,4-Dichloro-phenyl)-pyrimidine-4-carbonyl]-pyrrolidine-3-carboxylic acid methylamide] | 83.065 |
| O=C(O)C1CCN(C(=O)c2cc(-c3ccc(Cl)c(Cl)c3)ncn2)C1 (centres unmarked) [1-[6-(3,4-dichloro-phenyl)-pyrimidine-4-carbonyl]-pyrrolidine-3-carboxylic acid] | 101.855 |
| CON=C(C)c1cc(-c2cccc(Cl)c2)ncn1 [1-[6-(3-Chloro-phenyl)-pyrimidin-4-yl]-ethanone O-methyl-oxime] | 102.2 |
| CC(=O)c1cc(-c2cccc(Cl)c2)ncn1 [1-[6-(3-Chloro-phenyl)-pyrimidin-4-yl]-ethanone] | 97.49 |
| O=C(CCN1CCCC1)N1CCN(C(=O)c2cc(-c3ccc(Cl)c(Cl)c3)ncn2)CC1 [1-{4-[6-(3,4-Dichloro-phenyl)-pyrimidine-4-carbonyl]-piperazin-1-yl}-3-pyrrolidin-1-yl-propan-1-one] | 68.48 |
| CC(=O)N1CCN(C(=O)c2cc(-c3ccc(Cl)c(Cl)c3)ncn2)CC1 [1-{4-[6-(3,4-Dichloro-phenyl)-pyrimidine-4-carbonyl]-piperazin-1-yl}-ethanone] | 100.06 |
| O=C(c1cc(-c2ccc(Cl)c(Cl)c2)ncn1)N1CCN2C(=O)CCC2C1 (centres unmarked) [2-[6-(3,4-Dichloro-phenyl)-pyrimidine-4-carbonyl]-hexahydro-pyrrolo[1,2-a]pyrazin-6-one] | 97.22 |
| CC(C)COC(=O)c1cc(-c2ccc(Cl)c(Cl)c2)ncn1 [2-methylpropyl 6-(3,4-dichlorophenyl)pyrimidine-4-carboxylate] | 100 |
| O=C(NS(=O)(=O)c1cccc(Cl)c1)c1cc(-c2ccc(Cl)c(Cl)c2)ncn1 [3-Chloro-N-[6-(3,4-dichloro-phenyl)-pyrimidine-4-carbonyl]-benzenesulfonamide] | 102.26 |
| O=C(NS(=O)(=O)c1cccc(Cl)c1)c1cc(-c2cccc(Cl)c2)ncn1 [3-Chloro-N-[6-(3-chloro-phenyl)-pyrimidine-4-carbonyl]-benzenesulfonamide] | 101.57 |
| O=C1OCc2c1ncnc2-c1ccc(Cl)c(Cl)c1 [4-(3,4-dichloro-phenyl)-5H-furo[3,4-d]pyrimidin-7-one] | 94 |
| O=C1CN(C(=O)c2cc(-c3ccc(Cl)c(Cl)c3)ncn2)CCN1CCN1CCOCC1 [4-[6-(3,4-Dichloro-phenyl)-pyrimidine-4-carbonyl]-1-(2-morpholin-4-yl-ethyl)-piperazin-2-one] | 98.7 |
| O=C1CN(C(=O)c2cc(-c3ccc(Cl)c(Cl)c3)ncn2)CCN1CCN1CCCC1 [4-[6-(3,4-Dichloro-phenyl)-pyrimidine-4-carbonyl]-1-(2-pyrrolidin-1-yl-ethyl)-piperazin-2-one] | 99.275 |
| O=C1CN(C(=O)c2cc(-c3ccc(Cl)c(Cl)c3)ncn2)CCN1CC1CCOCC1 [4-[6-(3,4-Dichloro-phenyl)-pyrimidine-4-carbonyl]-1-(tetrahydro-pyran-4-ylmethyl)-piperazin-2-one] | 99.91 |
| CN1CCN(C(=O)c2cc(-c3ccc(Cl)c(Cl)c3)ncn2)CC1=O [4-[6-(3,4-Dichloro-phenyl)-pyrimidine-4-carbonyl]-1-methyl-piperazin-2-one] | 87.44 |
| CC1C(=O)NCCN1C(=O)c1cc(-c2ccc(Cl)c(Cl)c2)ncn1 (centres unmarked) [4-[6-(3,4-Dichloro-phenyl)-pyrimidine-4-carbonyl]-3-methyl-piperazin-2-one] | 97.9 |

| Compound | % Inhibition at 10 uM [%] |
| --- | --- |
| O=C1CN(C(=O)c2cc(-c3ccc(Cl)c(Cl)c3)ncn2)CCN1 [4-[6-(3,4-Dichloro-phenyl)-pyrimidine-4-carbonyl]-piperazin-2-one] | 101.6 |
| O=C1CN(C(=O)c2cc(-c3ccc(F)c(F)c3)ncn2)CCN1 [4-[6-(3,4-Difluoro-phenyl)-pyrimidine-4-carbonyl]-piperazin-2-one] | 100.995 |
| O=C1CN(C(=O)c2cc(-c3cccc(Br)c3)ncn2)CCN1 [4-[6-(3-Bromo-phenyl)-pyrimidine-4-carbonyl]-piperazin-2-one] | 96.625 |
| O=C1CN(C(=O)c2cc(-c3ccc(F)c(Cl)c3)ncn2)CCN1 [4-[6-(3-Chloro-4-fluoro-phenyl)-pyrimidine-4-carbonyl]-piperazin-2-one] | 100.85 |
| O=C(N[C@H]1CCCc2ccccc21)c1cc(-c2ccc(Cl)c(Cl)c2)ncn1 [6-(3,4-Dichloro-phenyl)-pyrimidine-4-carboxylic acid (1,2,3,4-tetrahydro-naphthalen-1S-yl)-amide] | 95.92 |
| O=C(NC1CN2CCC1CC2)c1cc(-c2ccc(Cl)c(Cl)c2)ncn1 (centres unmarked) [6-(3,4-Dichloro-phenyl)-pyrimidine-4-carboxylic acid (1-aza-bicyclo[2.2.2]oct-3-yl)-amide] | 100.905 |
| Cl.O=C(NCC12CCN(CC1)CC2)c1cc(-c2ccc(Cl)c(Cl)c2)ncn1 [6-(3,4-Dichloro-phenyl)-pyrimidine-4-carboxylic acid (1-aza-bicyclo[2.2.2]oct-4-ylmethyl)-amide hydrochloride salt] | 65.78 |
| Cn1nc(NC(=O)c2cc(-c3ccc(Cl)c(Cl)c3)ncn2)c2ccccc21 [6-(3,4-Dichloro-phenyl)-pyrimidine-4-carboxylic acid (1-methyl-1H-indazol-3-yl)-amide] | 93.95 |
| Cn1ccc(NC(=O)c2cc(-c3ccc(Cl)c(Cl)c3)ncn2)n1 [6-(3,4-Dichloro-phenyl)-pyrimidine-4-carboxylic acid (1-methyl-1H-pyrazol-3-yl)-amide] | 100.05 |
| O=C(NC1(c2ccccc2)CC1)c1cc(-c2ccc(Cl)c(Cl)c2)ncn1 [6-(3,4-Dichloro-phenyl)-pyrimidine-4-carboxylic acid (1-phenyl-cyclopropyl)-amide] | 96.68 |
| CC(NC(=O)c1cc(-c2ccc(Cl)c(Cl)c2)ncn1)C1CCNCC1.Cl (centres unmarked) [6-(3,4-Dichloro-phenyl)-pyrimidine-4-carboxylic acid (1-piperidin-4-yl-ethyl)-amide hydrochloride salt] | 85.09 |
| CC1(C)CC(NC(=O)c2cc(-c3ccc(Cl)c(Cl)c3)ncn2)CC(C)(C)N1.Cl [6-(3,4-Dichloro-phenyl)-pyrimidine-4-carboxylic acid (2,2,6,6-tetramethyl-piperidin-4-yl)-amide hydrochloride salt] | 99.59 |
| CC1(C)CC(NC(=O)c2cc(-c3ccc(Cl)c(Cl)c3)ncn2)CC(C)(C)N1 [6-(3,4-Dichloro-phenyl)-pyrimidine-4-carboxylic acid (2,2,6,6-tetramethyl-piperidin-4-yl)-amide] | 100.11 |
| Cc1cc(C)c(NC(=O)c2cc(-c3ccc(Cl)c(Cl)c3)ncn2)c(C)c1 [6-(3,4-Dichloro-phenyl)-pyrimidine-4-carboxylic acid (2,4,6-trimethyl-phenyl)-amide] | 70.84 |
| Cc1ccnc(C)c1NC(=O)c1cc(-c2ccc(Cl)c(Cl)c2)ncn1 [6-(3,4-Dichloro-phenyl)-pyrimidine-4-carboxylic acid (2,4-dimethyl-pyridin-3-yl)-amide] | 85.37 |
| CN(CCN)C(=O)c1cc(-c2ccc(Cl)c(Cl)c2)ncn1.O=C(O)C(F)(F)F [6-(3,4-Dichloro-phenyl)-pyrimidine-4-carboxylic acid (2-amino-ethyl)-methyl-amide, trifluoro-acetic acid salt] | 64.52 |
| CC(C)(O)CNC(=O)c1cc(-c2ccc(Cl)c(Cl)c2)ncn1 [6-(3,4-Dichloro-phenyl)-pyrimidine-4-carboxylic acid (2-hydroxy-2-methyl-propyl)-amide] | 57.19 |
| Cc1cnc(NC(=O)c2cc(-c3ccc(Cl)c(Cl)c3)ncn2)c(C)n1 [6-(3,4-Dichloro-phenyl)-pyrimidine-4-carboxylic acid (3,5-dimethyl-pyrazin-2-yl)-amide] | 97.84 |
| Cc1nsc(NC(=O)c2cc(-c3ccc(Cl)c(Cl)c3)ncn2)n1 [6-(3,4-Dichloro-phenyl)-pyrimidine-4-carboxylic acid (3-methyl-[1,2,4]-thiadiazol-5-yl)-amide] | 100.16 |
